Source: US20140057880A1, “ANTCIN DERIVATIVES IN COMBINATION WITH ANTI-CANCER DRUGS IN THE TREATMENT AND/OR PREVENTION OF TUMORS” (Taiwan Antitumor Biotech Co., Ltd., priority 2012, published 2014)
Converted amounts (≈) assume the structure as drawn. Like-named read-outs stand apart in the source and are kept apart here.

Key:
[1] = tested on: HepG2 cells
[2] = tested on: HepG2 cells; test: cells; conditions: Homo sapiens, HepG2, 24 h, read-out: IC50 of HepG2 cells
[3] = tested on: human cancer cells; conditions: human cancer cells rather than normal cells; cited from earlier work
[4] = tested on: CCD-966SK cells; test: Cell viability assay (MTT assay), normal cell line CCD-966SK; assay type: cell-based

Row | Structure (SMILES) | IC50 [2] [µg/mL] | selective inhibition of proliferation [3] | also measured
1 | O=c1[nH]cc(F)c(=O)[nH]1 [5FU, 5-fluorouracil] | 200 (≈ 1540 µM) | – | killing of HepG2 cells ([1]; 5FU alone, high concentration): cannot be completely killed
2 | C=C(CC[C@@H](C)[C@H]1CC[C@H]2C3=C(C(=O)C[C@]12C)[C@@]1(C)CCC(=O)[C@@H](C)[C@@H]1CC3)[C@@H](C)C(=O)O [Antcin A, 4α-methylergosta-8,24(28)-diene-3,11-dione-26-oic acid] | – | selectively inhibit proliferation of human cancer cells rather than normal cells | –
3 | C=C(CC[C@@H](C)[C@H]1CC[C@H]2C3=C(C(=O)C[C@]12C)[C@@]1(C)CCC(=O)[C@@H](C)C1C[C@@H]3O)C(C)C(=O)O (stereo partly shown) [Antcin C, 4amethylergosta-8,24(28)-dien-3,11-trion-7P-26-oic acid] | – | selectively inhibit proliferation of human cancer cells rather than normal cells | –
4 | C=C(CC[C@@H](C)[C@H]1CC[C@H]2C3=C(C(=O)C[C@]12C)[C@@]1(C)CCC(=O)[C@@H](C)[C@@H]1CC3)C(C)C(=O)OC (stereo partly shown) [Methyl antcinate A] | – | selectively inhibit proliferation of human cancer cells rather than normal cells | –
5 | O=C1c2c(O)ccc(O)c2C(=O)c2c(NCCNCCO)ccc(NCCNCCO)c21 [mitoxantrone] | ~2.5 (≈ 5.62 µM) | – | viability of normal cells (CCD-966SK cells) ([4]; mitoxantrone alone at about 2.5 μg/ml (FIG. 12)): reduced
6 | CCN(CC)CCNC(=O)c1c(C)[nH]c(/C=C2\C(=O)Nc3ccc(F)cc32)c1C [sunitinib] | ~25 (≈ 62.7 µM) | – | killing of normal cells (CCD-966SK cells) ([4]; sunitinib alone at about 25 μg/ml (FIG. 10)): also killed
7 | CC/C(=C(\c1ccccc1)c1ccc(OCCN(C)C)cc1)c1ccccc1 [tamoxifen] | – | – | killing of HepG2 cells ([1]; 12.5 μg/ml tamoxifen alone): cannot be completely killed
